Several values for one entry are separate records, joined by “and”; a condition that tells them apart may be missing. Equal values may be shown once.
Experiments:
[1] = target: T1, SOAT (Homo sapiens, UniProt Q3KNW5); assay: [3H]DHEAS transport inhibition assay in SOAT-HEK293 cells; format: cell-based; conditions: 1 μM [3H]DHEAS; for IC50: 10 min, SOAT-HEK293, two independent experiments
T1 construct: stably transfected with the full open reading frames of human NTCP, ASBT, SOAT, OATP1B1, OATP1B3, OATP2B1, and murine Asbt (mAsbt); expressed in transfected cells; host or cells: HEK293 (Flp-In), stably transfected, tetracycline-induced
T1 sequence (Q3KNW5 1-377): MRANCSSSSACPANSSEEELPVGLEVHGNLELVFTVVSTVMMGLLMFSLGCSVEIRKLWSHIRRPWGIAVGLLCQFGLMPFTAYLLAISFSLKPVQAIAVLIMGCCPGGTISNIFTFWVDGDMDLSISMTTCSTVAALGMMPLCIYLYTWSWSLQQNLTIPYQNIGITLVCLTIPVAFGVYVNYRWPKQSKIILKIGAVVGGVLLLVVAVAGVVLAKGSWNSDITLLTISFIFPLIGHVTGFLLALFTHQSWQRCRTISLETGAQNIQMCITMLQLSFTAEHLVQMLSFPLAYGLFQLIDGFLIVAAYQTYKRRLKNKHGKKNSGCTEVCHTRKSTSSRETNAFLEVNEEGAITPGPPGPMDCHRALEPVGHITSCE
Text: (§1) Human embryonic kidney HEK293 cells, stably transfected with the full open reading frames of human NTCP, ASBT, SOAT, OATP1B1, OATP1B3, OATP2B1, and murine Asbt (mAsbt) were used as reported ([18], [20], [21], [22], [23]). The NTCP, ASBT, and mAsbt constructs were C-terminally tagged with the FLAG epitope, and the SOAT construct was C-terminally tagged with green fluorescent protein. Non-transfected Flp-In HEK293 cells (Thermo Fisher Scientific) served as the control. All cell lines were maintained at 37°C, 5% CO2 and 95% humidity in DMEM/F-12 medium (Thermo Fisher Scientific) supplemented with 10% fetal calf serum (Sigma-Aldrich), 4 mM L-glutamine (PAA) and penicillin/streptomycin (PAA). Expression of the respective carrier protein was induced by tetracycline treatment at 1 μg/ml (Carl Roth GmbH + Co. KG).
(§2) Cells were seeded onto poly-L-lysine-coated 96-well plates, induced with 1 μg/ml tetracycline, and grown to confluence over 72 h at 37°C. Then, cells were washed with tempered (37°C) phosphate-buffered saline (PBS, containing 137.0 mM NaCl, 2.7 mM KCl, 1.5 mM KH2PO4, and 7.3 mM Na2HPO4, at pH 7.4) and preincubated with 80 μl sodium transport buffer (STB, containing 142.9 mM NaCl, 4.7 mM KCl, 1.2 mM MgSO4, 1.2 mM KH2PO4, 1.8 mM CaCl2, and 20.0 mM HEPES, at pH 7.4) for 5 min at 37°C. For inhibition studies, the medium was replaced by 80 μl STB containing the respective inhibitor or solvent alone and cells were further incubated for 5 min at 37°C. Transport experiments were started by adding 20 μl of a 5-fold concentrated substrate solution (solved in STB). For transport experiments under sodium-free conditions the same buffer composition was used as for STB, but sodium chloride was substituted with equimolar concentrations of choline chloride as previously reported ([20], [24]). Transport experiments were stopped by washing twice with ice-cold PBS and the plates were kept cool on ice until adding the lysis buffer [1% sodium dodecyl sulfate (SDS) and 1 N NaOH]. Then, the cell-associated radioactivity of the respective tritium-labeled substrate or ligand was quantified by liquid scintillation counting using MicroScint-20 scintillation cocktail (Revvity) in a Packard Microplate Scintillation Counter TopCount NXT (Packard Instrument Company). For IC50 transport inhibition measurements, the mean uptake values measured in non-carrier-expressing HEK293 control cells were defined as 0% uptake control and were subtracted from all other values. Values from cells without inhibitor and solvent alone were set to 100%. Finally, all net transport data were expressed as uptake or binding as % of control. All transport or inhibition graphs were generated with GraphPad Prism 6 (GraphPad). Determination of half maximal inhibitory concentrations (IC50) was done by nonlinear regression analysis using the equation log (inhibitor) versus response—variable slope settings. All data points of the IC50 curves represent means ± SD of quadruplicate determinations. For Km measurements, BS uptake in the absence of sodium was regarded as carrier-independent unspecific uptake and was subtracted from the transport rates in the presence of sodium to obtain carrier-specific uptake rates (indicated as dashed lines). From the specific uptake rates, Michaelis Menten Km values were calculated by non-linear regression analysis.

[2] = target: T2, NTCP (Homo sapiens, UniProt Q14973); assay: [3H]TC transport and inhibition assay in NTCP-HEK293 cells; format: cell-based; conditions: 1 μM [3H]TC; for IC50: 10 min, NTCP-HEK293, two independent experiments; for NTCP inhibition (in words): inhibitor up to 100 μM
T2 construct: stably transfected with the full open reading frames of human NTCP, ASBT, SOAT, OATP1B1, OATP1B3, OATP2B1, and murine Asbt (mAsbt); expressed in transfected cells; host or cells: HEK293 (Flp-In), stably transfected, tetracycline-induced
T2 sequence (Q14973 1-349): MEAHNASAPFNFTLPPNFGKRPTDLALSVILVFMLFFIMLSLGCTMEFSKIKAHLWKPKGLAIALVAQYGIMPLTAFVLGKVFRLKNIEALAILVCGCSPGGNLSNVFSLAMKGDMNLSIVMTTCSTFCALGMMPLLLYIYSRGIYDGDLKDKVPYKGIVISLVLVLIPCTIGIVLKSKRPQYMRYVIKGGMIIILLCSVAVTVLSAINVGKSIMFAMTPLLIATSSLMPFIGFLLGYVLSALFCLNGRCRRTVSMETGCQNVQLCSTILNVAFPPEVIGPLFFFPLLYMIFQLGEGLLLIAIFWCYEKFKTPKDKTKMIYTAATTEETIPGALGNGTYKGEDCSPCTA
Text: as §1, §2

| IC50 [1] | IC50 [2] | NTCP inhibition (in words) [2] | SOAT inhibition (in words) ([1]; inhibitor up to 100 μM) | SMILES |
| --- | --- | --- | --- | --- |
| 4.5 µM and 5.9 µM | 91.5 µM and 98.5 µM |  |  | CCCCC1(CCCC)CS(=O)(=O)c2ccc(N(C)C)cc2[C@@H](c2ccc(OCc3ccc(C[N+]45CCN(CC4)CC5)cc3)cc2)[C@H]1O [maralixibat] |
| 5.5 µM and 5.6 µM | 9.9 µM and 17 µM |  |  | CCCCC1(CCCC)CN(c2ccccc2)c2cc(SC)c(OCC(=O)N[C@@H](C(=O)N[C@@H](CC)C(=O)O)c3ccc(O)cc3)cc2S(=O)(=O)N1 [odevixibat] |

Continued, molecule first:

| SMILES | IC50 [1] | IC50 [2] | NTCP inhibition (in words) [2] | SOAT inhibition (in words) ([1]; inhibitor up to 100 μM) |
| --- | --- | --- | --- | --- |
| CCCCC1(CCCC)CS(=O)(=O)c2ccc(N(C)C)cc2[C@@H](c2ccc(OCCCC[N+]34CCN(CC3)CC4)cc2)[C@H]1O [SC-435] | 8.6 µM and 13.5 µM |  | no significant NTCP inhibition |  |
| CCCC[C@]1(CC)CS(=O)(=O)c2cc(CNC(CC(=O)O)CC(=O)O)c(OC)cc2[C@@H](c2ccccc2)N1 [linerixibat] |  |  | no significant NTCP inhibition | failed to significantly inhibit SOAT |
| CCCCC1(CCCC)CN(c2ccccc2)c2cc(SC)c(OCC(=O)N[C@@H](C(=O)NCC(=O)O)c3ccccc3)cc2S(=O)(=O)C1 [elobixibat] | 3.2 µM and 3.3 µM | 36.3 µM and 66.1 µM |  |  |

Source: PMC12596218 (Journal of Lipid Research, 2025)
